How the values were obtained:
Assay in all cases: biochemical
Set-up in all cases: Kinase selectivity panel, IC50 of AC484 (Supplementary Table 1)
Erk2 = biological target: T1, Erk2 (Homo sapiens, UniProt P28482)
T1 construct: gene MAPK1

Ck1alpha1 = biological target: T2, Ck1alpha1 (Homo sapiens, UniProt P48729)
T2 construct: gene CSNK1A1

Fyn = Fyn (Homo sapiens, UniProt P06241)
CLK2 = CLK2 (Homo sapiens, UniProt P49760)
JAK2 = JAK2 (Homo sapiens, UniProt O60674)
JAK3 = JAK3 (Homo sapiens, UniProt P52333)
Akt1 = Akt1 (Homo sapiens, UniProt P31749)
BMX = BMX (Homo sapiens, UniProt P51813)
GRK5 = GRK5 (Homo sapiens, UniProt P34947)
MEK1 = biological target: T3, MEK1 (Homo sapiens, UniProt Q02750)
T3 construct: gene MAP2K1

PKCbeta1 = biological target: T4, PKCbeta1 (Homo sapiens, UniProt P05771)
T4 construct: gene PRKCB; isoform beta1

TrkC = biological target: T5, TrkC (Homo sapiens, UniProt Q16288)
T5 construct: gene NTRK3

TNK2 = TNK2 (Homo sapiens, UniProt Q07912)
Description: (§1) Wide-range phosphatase, kinase and preclinical safety pharmacology off-target activity screens were conducted at Eurofins (Extended Data Table 5 and Supplementary Tables 1 and 2). A small phosphatase panel was developed at AbbVie to assess IC50 values on select phosphatases. The following enzymes used in the phosphatase selectivity panel were purchased from Eurofins: PTPN1 (PTP1B; 14–621), PTPN2 (TC-PTP; 14–646), PTPN9 (14–592), SHP1 (14–591) and SHP2 (14–622). The catalytic activity of the phosphatase was monitored using the small-molecule substrate DiFMUP (ThermoFisher) in a fluorescence assay format. In brief, the phosphatase reactions were performed at room temperature in the following assay buffer: 50 mM HEPES, pH 7.2, 100 mM NaCl, 1 mM EDTA, 0.005% Tween-20 and 5 mM TCEP. Each phosphatase was incubated with increasing concentrations of AC484 for 5 min, after which the substrate DiFMUP was added and incubated at 25 °C for 30 min. The final concentration of the enzyme and substrate was maintained at 0.5 nM and 5 μM, respectively, in all the assays. The reaction was then quenched by the addition of a 100 μM solution of bpV(Phen) (Enzo Life Sciences). The fluorescence signal was monitored using an Envision microplate reader (Perkin-Elmer) using excitation and emission wavelengths of 340 nm and 450 nm, respectively. The dose–response curves for the inhibitors were analysed using normalized IC50 regression curve fitting with control-based normalization. Supplementary file 41586_2023_6575_MOESM3_ESM.xlsx: Supplementary Table 1 AC484 kinase selectivity screen.

Nek2 = Nek2 (Homo sapiens, UniProt P51955)
Description: as §1

PKCdelta = biological target: T6, PKCdelta (Homo sapiens, UniProt Q05655)
T6 construct: gene PRKCD
Description: as §1

Gsk3b = Gsk3b (Homo sapiens, UniProt P49841)
Description: as §1

Flt1 = Flt1 (Homo sapiens, UniProt P17948)
Description: as §1

LTK = LTK (Homo sapiens, UniProt P29376)
Description: as §1

Abl = biological target: T7, Abl (Homo sapiens, UniProt P00519)
T7 construct: gene ABL1
Description: as §1

Plk4 = Plk4 (Homo sapiens, UniProt O00444)
Description: as §1

PKAc beta = biological target: T8, PKAc beta (Homo sapiens, UniProt P22694)
T8 construct: gene PRKACB
Description: as §1

BTK = BTK (Homo sapiens, UniProt Q06187)
Description: as §1

STK33 = STK33 (Homo sapiens, UniProt Q9BYT3)
Description: as §1

Measured: IC50

T2 sequence (P48729 whole entry): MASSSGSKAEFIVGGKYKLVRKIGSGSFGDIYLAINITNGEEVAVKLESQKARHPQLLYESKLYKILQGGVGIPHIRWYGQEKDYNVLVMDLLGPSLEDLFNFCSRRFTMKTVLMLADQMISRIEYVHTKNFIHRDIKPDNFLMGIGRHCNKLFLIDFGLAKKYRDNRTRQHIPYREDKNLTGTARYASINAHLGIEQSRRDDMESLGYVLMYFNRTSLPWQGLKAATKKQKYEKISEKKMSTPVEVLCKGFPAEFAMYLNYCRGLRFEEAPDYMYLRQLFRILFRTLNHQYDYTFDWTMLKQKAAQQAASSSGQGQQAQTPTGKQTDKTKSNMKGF
Sequence of Plk4 (O00444 whole entry): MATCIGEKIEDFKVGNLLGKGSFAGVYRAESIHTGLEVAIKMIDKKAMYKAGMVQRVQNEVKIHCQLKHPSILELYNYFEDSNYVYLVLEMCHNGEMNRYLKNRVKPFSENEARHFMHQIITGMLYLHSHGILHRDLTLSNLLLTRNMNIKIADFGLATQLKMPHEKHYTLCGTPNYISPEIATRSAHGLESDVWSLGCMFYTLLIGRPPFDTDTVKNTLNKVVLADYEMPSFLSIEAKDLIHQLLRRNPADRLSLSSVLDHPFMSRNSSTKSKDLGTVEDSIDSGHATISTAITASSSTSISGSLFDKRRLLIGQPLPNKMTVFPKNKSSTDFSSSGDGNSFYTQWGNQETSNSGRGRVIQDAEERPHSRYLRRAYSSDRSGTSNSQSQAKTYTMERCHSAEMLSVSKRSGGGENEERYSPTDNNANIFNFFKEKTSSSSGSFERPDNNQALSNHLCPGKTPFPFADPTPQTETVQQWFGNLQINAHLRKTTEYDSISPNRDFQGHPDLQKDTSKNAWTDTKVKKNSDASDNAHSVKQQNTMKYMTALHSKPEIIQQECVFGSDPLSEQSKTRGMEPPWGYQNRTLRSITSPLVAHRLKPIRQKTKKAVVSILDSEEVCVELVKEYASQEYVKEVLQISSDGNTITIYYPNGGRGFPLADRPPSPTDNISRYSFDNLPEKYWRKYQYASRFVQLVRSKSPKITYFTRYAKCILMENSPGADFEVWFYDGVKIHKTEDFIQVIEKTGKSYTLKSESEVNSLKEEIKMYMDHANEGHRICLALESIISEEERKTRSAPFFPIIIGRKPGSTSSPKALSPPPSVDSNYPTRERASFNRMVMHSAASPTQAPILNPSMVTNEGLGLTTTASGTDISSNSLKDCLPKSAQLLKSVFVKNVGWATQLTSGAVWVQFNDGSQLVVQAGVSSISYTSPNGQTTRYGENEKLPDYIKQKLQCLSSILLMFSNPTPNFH
T5 sequence (Q16288 whole entry): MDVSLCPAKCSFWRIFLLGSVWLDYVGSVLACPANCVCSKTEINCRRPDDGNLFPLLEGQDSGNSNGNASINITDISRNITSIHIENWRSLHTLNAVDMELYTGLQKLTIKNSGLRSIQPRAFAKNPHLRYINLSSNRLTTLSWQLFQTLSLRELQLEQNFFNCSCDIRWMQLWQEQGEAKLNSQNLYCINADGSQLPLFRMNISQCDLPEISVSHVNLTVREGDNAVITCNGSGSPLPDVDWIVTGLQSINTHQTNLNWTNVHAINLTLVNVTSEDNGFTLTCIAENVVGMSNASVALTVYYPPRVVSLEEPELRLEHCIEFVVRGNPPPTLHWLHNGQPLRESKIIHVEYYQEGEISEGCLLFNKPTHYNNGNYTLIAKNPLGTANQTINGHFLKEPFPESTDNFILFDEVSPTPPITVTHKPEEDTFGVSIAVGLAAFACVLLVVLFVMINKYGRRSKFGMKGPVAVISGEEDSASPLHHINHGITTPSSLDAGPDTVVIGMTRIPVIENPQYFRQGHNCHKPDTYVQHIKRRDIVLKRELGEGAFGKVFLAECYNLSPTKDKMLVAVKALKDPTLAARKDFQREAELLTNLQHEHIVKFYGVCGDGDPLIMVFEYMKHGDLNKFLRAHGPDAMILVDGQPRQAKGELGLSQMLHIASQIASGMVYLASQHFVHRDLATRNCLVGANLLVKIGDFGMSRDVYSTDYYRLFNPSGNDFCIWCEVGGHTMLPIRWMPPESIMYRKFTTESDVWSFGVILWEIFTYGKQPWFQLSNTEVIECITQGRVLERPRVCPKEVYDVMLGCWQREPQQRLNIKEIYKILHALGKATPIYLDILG
T3 sequence (Q02750 whole entry): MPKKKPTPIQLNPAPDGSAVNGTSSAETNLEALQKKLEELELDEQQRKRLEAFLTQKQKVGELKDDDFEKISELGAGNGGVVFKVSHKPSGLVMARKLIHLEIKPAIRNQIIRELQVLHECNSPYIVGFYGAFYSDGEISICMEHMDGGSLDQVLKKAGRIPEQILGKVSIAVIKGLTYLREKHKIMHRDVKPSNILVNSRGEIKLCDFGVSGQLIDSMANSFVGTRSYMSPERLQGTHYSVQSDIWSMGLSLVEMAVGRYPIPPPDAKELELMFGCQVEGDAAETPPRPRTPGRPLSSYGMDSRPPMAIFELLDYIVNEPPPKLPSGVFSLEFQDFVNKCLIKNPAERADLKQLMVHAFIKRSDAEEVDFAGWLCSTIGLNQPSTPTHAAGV
Sequence of JAK3 (P52333 whole entry): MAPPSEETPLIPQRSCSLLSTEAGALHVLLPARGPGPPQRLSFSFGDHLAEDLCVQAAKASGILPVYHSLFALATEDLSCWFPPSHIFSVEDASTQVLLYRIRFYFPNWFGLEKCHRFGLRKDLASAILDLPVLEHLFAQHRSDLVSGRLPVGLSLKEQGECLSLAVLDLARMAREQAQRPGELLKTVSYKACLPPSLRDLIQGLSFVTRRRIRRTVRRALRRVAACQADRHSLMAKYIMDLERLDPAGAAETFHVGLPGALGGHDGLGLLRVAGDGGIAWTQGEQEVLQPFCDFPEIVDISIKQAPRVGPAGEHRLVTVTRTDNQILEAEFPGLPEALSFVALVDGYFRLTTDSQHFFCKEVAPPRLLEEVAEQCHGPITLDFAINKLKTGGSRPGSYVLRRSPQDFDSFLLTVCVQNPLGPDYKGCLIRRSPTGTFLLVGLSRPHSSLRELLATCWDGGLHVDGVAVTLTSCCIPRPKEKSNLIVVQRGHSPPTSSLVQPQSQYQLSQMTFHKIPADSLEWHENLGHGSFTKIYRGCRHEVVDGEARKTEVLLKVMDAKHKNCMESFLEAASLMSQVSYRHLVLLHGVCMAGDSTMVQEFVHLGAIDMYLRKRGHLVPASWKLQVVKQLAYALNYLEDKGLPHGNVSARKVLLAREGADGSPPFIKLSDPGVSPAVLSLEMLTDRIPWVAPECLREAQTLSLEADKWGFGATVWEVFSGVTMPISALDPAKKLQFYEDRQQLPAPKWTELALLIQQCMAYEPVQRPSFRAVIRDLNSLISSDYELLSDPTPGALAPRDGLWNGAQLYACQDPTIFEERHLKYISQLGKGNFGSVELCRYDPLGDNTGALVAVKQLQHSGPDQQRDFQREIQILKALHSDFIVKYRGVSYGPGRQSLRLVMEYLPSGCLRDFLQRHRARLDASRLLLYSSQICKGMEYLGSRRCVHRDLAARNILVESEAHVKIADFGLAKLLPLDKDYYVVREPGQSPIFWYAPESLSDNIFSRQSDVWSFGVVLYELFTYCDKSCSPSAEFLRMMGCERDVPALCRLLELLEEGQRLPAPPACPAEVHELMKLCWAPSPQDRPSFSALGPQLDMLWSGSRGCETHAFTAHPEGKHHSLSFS
Sequence of TNK2 (Q07912 whole entry): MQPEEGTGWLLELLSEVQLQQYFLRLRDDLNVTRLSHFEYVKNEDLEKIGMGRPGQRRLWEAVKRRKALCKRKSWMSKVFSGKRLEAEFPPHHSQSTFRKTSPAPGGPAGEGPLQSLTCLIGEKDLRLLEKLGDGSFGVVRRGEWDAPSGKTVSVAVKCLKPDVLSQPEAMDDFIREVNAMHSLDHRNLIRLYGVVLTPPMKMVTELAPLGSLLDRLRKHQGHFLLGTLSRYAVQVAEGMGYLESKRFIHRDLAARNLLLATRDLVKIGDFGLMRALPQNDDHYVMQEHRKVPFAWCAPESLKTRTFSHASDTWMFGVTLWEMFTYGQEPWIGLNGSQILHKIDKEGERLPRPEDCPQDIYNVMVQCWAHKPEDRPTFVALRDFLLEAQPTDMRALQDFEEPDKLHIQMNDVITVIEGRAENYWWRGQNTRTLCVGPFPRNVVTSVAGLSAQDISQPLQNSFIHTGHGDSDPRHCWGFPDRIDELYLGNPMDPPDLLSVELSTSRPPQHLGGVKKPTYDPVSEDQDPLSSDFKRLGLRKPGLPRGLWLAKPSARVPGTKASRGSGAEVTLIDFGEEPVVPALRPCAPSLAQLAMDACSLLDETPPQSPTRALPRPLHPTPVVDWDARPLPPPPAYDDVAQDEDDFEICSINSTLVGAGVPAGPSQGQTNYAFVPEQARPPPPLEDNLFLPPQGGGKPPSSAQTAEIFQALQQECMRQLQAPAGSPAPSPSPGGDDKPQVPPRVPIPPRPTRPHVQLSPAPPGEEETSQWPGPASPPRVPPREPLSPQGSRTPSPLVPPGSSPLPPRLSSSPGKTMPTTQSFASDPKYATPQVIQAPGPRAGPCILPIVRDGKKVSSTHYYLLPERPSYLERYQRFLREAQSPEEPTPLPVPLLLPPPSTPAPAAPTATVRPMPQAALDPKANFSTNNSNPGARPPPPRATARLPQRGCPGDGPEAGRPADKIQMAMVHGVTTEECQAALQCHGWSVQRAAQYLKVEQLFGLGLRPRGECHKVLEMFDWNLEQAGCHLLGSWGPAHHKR
T1 sequence (P28482 whole entry): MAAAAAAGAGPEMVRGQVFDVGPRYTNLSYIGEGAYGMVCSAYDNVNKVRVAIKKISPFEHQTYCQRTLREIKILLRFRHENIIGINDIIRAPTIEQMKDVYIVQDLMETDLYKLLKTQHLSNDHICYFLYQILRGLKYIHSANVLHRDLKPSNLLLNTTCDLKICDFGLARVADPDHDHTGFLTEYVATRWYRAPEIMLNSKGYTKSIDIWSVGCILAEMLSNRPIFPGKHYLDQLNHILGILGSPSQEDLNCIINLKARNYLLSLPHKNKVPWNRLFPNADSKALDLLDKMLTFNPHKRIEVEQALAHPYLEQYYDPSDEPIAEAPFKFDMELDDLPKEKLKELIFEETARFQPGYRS

CC(C)CCN[C@@H]1CCc2cc(O)c(N3CC(=O)NS3(=O)=O)c(F)c2C1 [AC484, ABBV-CLS-484]
> 10 µM: all assays above
